Results published in ChEMBL document CHEMBL1201862, “PubChem BioAssay data set” (2004).
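Assay format: 96-well plates, 48-hour exposure. GI50: concentration for 50% inhibition of growth.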 Active and inactive are the calls of the source. Rule as the data show it: active = GI50 up to about 1.1 µM and inactive = higher.

Experiments:
Assay in all cases: NCI anticancer screen, dose series, 48 h
T47D = tested on: T47D
NCI-H23 = tested on: NCI-H23
HCT-116 = tested on: HCT-116
NCI/ADR-RES = tested on: NCI/ADR-RES
M14 = tested on: M14
SK-MEL-5 = tested on: SK-MEL-5
K562 = tested on: K562
ACHN = tested on: ACHN
UO-31 = tested on: UO-31
TK-10 = tested on: TK-10
EKVX = tested on: EKVX
COLO 205 = tested on: COLO 205
Malme-3M = tested on: Malme-3M
HCT-15 = tested on: HCT-15
HT-29 = tested on: HT-29
SK-MEL-28 = tested on: SK-MEL-28
HOP-92 = tested on: HOP-92
SF-539 = tested on: SF-539
OVCAR-8 = tested on: OVCAR-8
MOLT-4 = tested on: MOLT-4

SMILES	GI50 (T47D)	GI50 (NCI-H23)	GI50 (HCT-116)	GI50 (NCI/ADR-RES)	GI50 (M14)	GI50 (SK-MEL-5)	GI50 (K562)	GI50 (ACHN)	GI50 (UO-31)	GI50 (TK-10)	GI50 (EKVX)	GI50 (COLO 205)	GI50 (Malme-3M)	GI50 (HCT-15) [µM]	GI50 (HT-29)	GI50 (SK-MEL-28)	GI50 (HOP-92)	GI50 (SF-539)	GI50 (OVCAR-8)	GI50 (MOLT-4)
Fc1ccc2c(c1)SC1=Nc3sc4cc(F)ccc4[n+]3CN12	13.7 µM (inactive)	17.5 µM (inactive)	22.5 µM (inactive)	18.2 µM (inactive)	25.8 µM (inactive)	11.1 µM (inactive)	14.3 µM (inactive)	20.6 µM (inactive)	19.1 µM (inactive)	18.8 µM (inactive)	28 µM (inactive)	26.9 µM (inactive)	18.7 µM (inactive)	29.5	28.8 µM (inactive)	39.6 µM (inactive)	17.1 µM (inactive)	12.7 µM (inactive)	14.6 µM (inactive)	
CC1CN=C(N(C(=O)Nc2ccccc2)C2CCCCC2)S1 (stereo not given)	17.7 µM (inactive)	16.4 µM (inactive)	16.7 µM (inactive)	14.5 µM (inactive)		15.1 µM (inactive)	22.5 µM (inactive)	13.5 µM (inactive)	17.3 µM (inactive)	16.7 µM (inactive)	15.7 µM (inactive)	19 µM (inactive)	16.3 µM (inactive)	14.4	17 µM (inactive)	12.4 µM (inactive)		22.4 µM (inactive)	25.9 µM (inactive)	16.7 µM (inactive)
CCOC(=O)c1c(N)sc2c1C(C(=O)OCC)CCC2 (stereo not given)	66.5 µM (inactive)	> 100 µM (inactive)	79.8 µM (inactive)		> 100 µM (inactive)	98.2 µM (inactive)	76.6 µM (inactive)	> 100 µM (inactive)	47.4 µM (inactive)	> 100 µM (inactive)	55.8 µM (inactive)	> 100 µM (inactive)	> 100 µM (inactive)	> 100	> 100 µM (inactive)	> 100 µM (inactive)	> 100 µM (inactive)		> 100 µM (inactive)	> 100 µM (inactive)
CC1CC/C(=C\c2ccc(Cl)cc2)C(=O)/C1=C\c1ccc(Cl)cc1 (stereo not given)	58.9 µM (inactive)		32.6 µM (inactive)		24 µM (inactive)	20.4 µM (inactive)	41 µM (inactive)	32.9 µM (inactive)	36.4 µM (inactive)	29.1 µM (inactive)	26.4 µM (inactive)	32.1 µM (inactive)		22.4	30.9 µM (inactive)	53.1 µM (inactive)	> 100 µM (inactive)		30.1 µM (inactive)	
COC(=O)C1=C(\c2ccccc2)c2ccccc2C(=O)N(C2CCCCC2)/C=C\1		17.1 µM (inactive)	19.4 µM (inactive)	26.5 µM (inactive)	28.6 µM (inactive)	11.5 µM (inactive)	4.59 µM (inactive)	15.6 µM (inactive)	22.6 µM (inactive)	41.3 µM (inactive)	52.6 µM (inactive)	14.5 µM (inactive)	25.3 µM (inactive)	24.1	21.9 µM (inactive)	17.9 µM (inactive)	14.9 µM (inactive)	24 µM (inactive)	38.9 µM (inactive)	> 100 µM (inactive)
Cc1csc(/N=C(/NCCN2CCOCC2)Nc2nc(C)cs2)n1		> 100 µM (inactive)	> 70.1 µM (inactive)	> 100 µM (inactive)		> 100 µM (inactive)	> 100 µM (inactive)		> 100 µM (inactive)		> 87.9 µM (inactive)	> 100 µM (inactive)	> 100 µM (inactive)	> 100	> 100 µM (inactive)	> 100 µM (inactive)	> 88.9 µM (inactive)	> 100 µM (inactive)	> 100 µM (inactive)	> 100 µM (inactive)
FC(F)(F)c1ccc(Cc2nc3cc4ccccc4cc3[nH]2)cc1	39.9 µM (inactive)	> 100 µM (inactive)	> 100 µM (inactive)	> 100 µM (inactive)	> 100 µM (inactive)	54.6 µM (inactive)	32.1 µM (inactive)	49 µM (inactive)	58.5 µM (inactive)	> 100 µM (inactive)	> 100 µM (inactive)	> 100 µM (inactive)	> 100 µM (inactive)	> 100	91.8 µM (inactive)	> 100 µM (inactive)	2.11 µM (inactive)	> 100 µM (inactive)	> 100 µM (inactive)	
Cc1cc2cc3c(C)cc(=O)oc3c(C)c2o1 [TRIOXSALEN]	> 100 µM (inactive)	> 100 µM (inactive)	> 100 µM (inactive)	> 100 µM (inactive)	> 100 µM (inactive)	> 100 µM (inactive)	> 100 µM (inactive)	> 100 µM (inactive)	> 100 µM (inactive)		90.6 µM (inactive)	> 100 µM (inactive)	> 100 µM (inactive)	> 100	> 100 µM (inactive)	> 100 µM (inactive)	> 100 µM (inactive)	> 100 µM (inactive)	> 100 µM (inactive)	> 100 µM (inactive)
N#CCc1c(F)c(F)c(F)c(F)c1F	> 100 µM (inactive)	> 100 µM (inactive)	> 100 µM (inactive)	> 100 µM (inactive)	> 100 µM (inactive)	54.6 µM (inactive)	> 100 µM (inactive)	> 100 µM (inactive)	> 100 µM (inactive)	> 100 µM (inactive)	> 100 µM (inactive)	> 100 µM (inactive)	> 100 µM (inactive)	> 100	> 100 µM (inactive)	> 100 µM (inactive)		> 100 µM (inactive)	> 100 µM (inactive)	> 100 µM (inactive)
COc1ccc(-c2c3c(nc4nc(SCCc5ccccc5)nc(N)c24)CCCC3)cc1OC	> 100 µM (inactive)	> 100 µM (inactive)	> 100 µM (inactive)	> 100 µM (inactive)	> 100 µM (inactive)	> 100 µM (inactive)	> 100 µM (inactive)	> 100 µM (inactive)	> 100 µM (inactive)	> 100 µM (inactive)	> 100 µM (inactive)	> 100 µM (inactive)	> 100 µM (inactive)	> 100	> 100 µM (inactive)	> 100 µM (inactive)		85.7 µM (inactive)	> 100 µM (inactive)	> 100 µM (inactive)
Cc1ccc(S(=O)(=O)N2c3ccccc3[C@H]3CCc4c([nH]c5ccccc45)[C@H]32)cc1	> 100 µM (inactive)	> 100 µM (inactive)	> 100 µM (inactive)	> 100 µM (inactive)	> 100 µM (inactive)	32 µM (inactive)	23.4 µM (inactive)	> 100 µM (inactive)	> 100 µM (inactive)	> 100 µM (inactive)	> 100 µM (inactive)	> 100 µM (inactive)			> 100 µM (inactive)	> 100 µM (inactive)	> 100 µM (inactive)	27.7 µM (inactive)	> 100 µM (inactive)	66.1 µM (inactive)
COC(=O)/C=C\C(C#N)(C#N)/N=C/c1cccs1	2.93 µM (inactive)	9.14 µM (inactive)	8.69 µM (inactive)	18.4 µM (inactive)	4.35 µM (inactive)	0.813 µM (active)	3.95 µM (inactive)	1.84 µM (inactive)	2.26 µM (inactive)	1.76 µM (inactive)	9.77 µM (inactive)	3.68 µM (inactive)	2.65 µM (inactive)	2.13	2 µM (inactive)	8.83 µM (inactive)	1.84 µM (inactive)		3.76 µM (inactive)	0.982 µM (active)
COC(=O)c1ccc(CN2CCc3c([nH]c4ccccc34)C2CO)o1 (stereo not given)	> 10 µM (inactive)	> 10 µM (inactive)			> 10 µM (inactive)	> 10 µM (inactive)	> 10 µM (inactive)			> 10 µM (inactive)	> 10 µM (inactive)	> 10 µM (inactive)	> 10 µM (inactive)	> 10	> 10 µM (inactive)	> 10 µM (inactive)	> 10 µM (inactive)		> 10 µM (inactive)	> 10 µM (inactive)
C/C=C/C1=CC(=O)C(O)C1O (stereo not given)		25.9 µM (inactive)	26.2 µM (inactive)	25.5 µM (inactive)		28.4 µM (inactive)	30.6 µM (inactive)		32.2 µM (inactive)		44.6 µM (inactive)	22 µM (inactive)	27.1 µM (inactive)	27.6	29.6 µM (inactive)	30.9 µM (inactive)	27.2 µM (inactive)	23.9 µM (inactive)	24.8 µM (inactive)	28 µM (inactive)
CC[C@]12C=CCN3CC[C@@]4(c5cc(Br)c(OC)c([N+](=O)[O-])c5N(C)[C@H]4[C@@](O)(C(=O)OC)[C@@H]1OC(C)=O)[C@@H]32	50.4 µM (inactive)	56.9 µM (inactive)	45.8 µM (inactive)	48.1 µM (inactive)	55.7 µM (inactive)	36.2 µM (inactive)	0.443 µM (active)	62.4 µM (inactive)	89.5 µM (inactive)	> 100 µM (inactive)	29.6 µM (inactive)	27.8 µM (inactive)	89.5 µM (inactive)	65.3	> 100 µM (inactive)	63.4 µM (inactive)		> 100 µM (inactive)	30.5 µM (inactive)	13.2 µM (inactive)
COc1ccc(C(=CCC(C)C2CCC3[C@@H]4C(OC(C)=O)CC5CC(OC(C)=O)CC[C@]5(C)C4CC(OC(C)=O)[C@]23C)c2ccc(OC)cc2)cc1 (stereo not given in full)	41 µM (inactive)		66.1 µM (inactive)	80.7 µM (inactive)	19.1 µM (inactive)	> 100 µM (inactive)	67.8 µM (inactive)	37.3 µM (inactive)	47.4 µM (inactive)	> 100 µM (inactive)	> 100 µM (inactive)	> 100 µM (inactive)		86.5	> 100 µM (inactive)	83.8 µM (inactive)		97.7 µM (inactive)	> 100 µM (inactive)	17.1 µM (inactive)
